Results reported in patent publication US10556865B2, “Synergistic herbicidal composition containing certain pyridine or pyrimidine carboxylic acids and certain cereal and rice herbicides” (Dow AgroSciences, LLC, priority 2007, dated 2020).
Several values for one entry are separate records, joined by “and”; a condition that tells them apart may be missing. Equal entries are not always repeated.

How the values were obtained:
Assay type in all cases: in vivo
[1] = tested on: blackgrass (Alopecurus myosuroides L; ALOMY); assay: Postemergence herbicidal activity of mixtures in cereal crops (greenhouse, visual injury 0-100 percent after 20-22 days)
Summary of the method: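 Plants at second-third true leaf stage sprayed postemergence at 187 L/ha with compound and second cereal herbicide alone and combined; solvent blank controls. Visual injury scored 0-100% versus controls after 20-22 days; expected mixture effects by Colby's equation.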

[2] = tested on: wild mustard (Sinapis arvensis L; SINAR); assay: Postemergence herbicidal activity of mixtures in cereal crops (greenhouse, visual injury)
Summary of the method: (§1)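 Compounds A and B, as methyl ester or TEA/K salts, are tested alone and mixed with a second cereal herbicide on greenhouse plants at the second–third true leaf stage. Spray volume is 187 L/ha. Percent visual injury at 20–22 days is compared with Colby-expected mixture response.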

[3] = tested on: Italian ryegrass (Lolium multiflorum L; LOLMU); assay: as above; settings: for LOLMU: Table 13
Summary of the method: as §1

[4] = tested on: lady's-thumb (Polygonum persicaria L; POLPE); assay: as above
Summary of the method: as §1

[5] = tested on: annual bluegrass (Poa annua L; POAAN); assay: as above
Summary of the method: as §1

[6] = tested on: canola (Brassica napus L; BRSNN); assay: as above
Summary of the method: as §1

[7] = tested on: kochia (Kochia scoparia L; KCHSC); assay: as above
Summary of the method: as §1

COC(=O)c1nc(-c2ccc(Cl)c(OC)c2F)cc(N)c1Cl [Compound A Methyl, 4-amino-3-chloro-6-(4-chloro-2-fluoro-3-methoxyphenyl)pyridine-2-carboxylic acid methyl ester]
ALOMY Ob ([1]; 17.5 g/ha, Table 1): 0% | ALOMY Ob ([1]; 17.5 g/ha, Table 2): 0% | ALOMY Ob ([1]; 17.5 g/ha, Table 4): 0% | ALOMY Ob ([1]; 17.5 g/ha, Table 5): 0% | ALOMY Ob ([1]; 17.5 g/ha, Table 6): 0% | ALOMY Ob ([1]; 35 g/ha, Table 1): 20% | ALOMY Ob ([1]; 35 g/ha, Table 2): 20% | ALOMY Ob ([1]; 35 g/ha, Table 3): 30% | ALOMY Ob ([1]; 35 g/ha, Table 4): 30% | ALOMY Ob ([1]; 35 g/ha, Table 5): 30% | ALOMY Ob ([1]; 35 g/ha, Table 6): 30% | ALOMY Ob ([1]; 35 g/ha, Table 7): 3% | ALOMY Ob ([1]; 70 g/ha, Table 1): 50% | ALOMY Ob ([1]; 70 g/ha, Table 2): 50% | ALOMY Ob ([1]; 70 g/ha, Table 3): 30% | ALOMY Ob ([1]; 70 g/ha, Table 4): 30% | ALOMY Ob ([1]; 70 g/ha, Table 5): 30% | ALOMY Ob ([1]; 70 g/ha, Table 6): 30% | ALOMY Ob ([1]; 70 g/ha, Table 7): 20% | ALOMY Ob ([1]; 140 g/ha, Table 7): 47% | SINAR Ob ([2]; 17.5 g/ha): 70% and 80% | SINAR Ob ([2]; 35 g/ha): 80% and 85% | SINAR Ob ([2]; 70 g/ha): 85% | LOLMU Ob ([3]; 35 g/ha, Table 10): 3% | LOLMU Ob ([3]; 70 g/ha, Table 10): 20% | LOLMU Ob ([3]; 140 g/ha, Table 10): 40% | POLPE Ob ([4]; 8.75 g/ha): 50% | POLPE Ob ([4]; 17.5 g/ha): 50% | POLPE Ob ([4]; 35 g/ha): 65% | POLPE Ob ([4]; 70 g/ha): 70% | POAAN Ob ([5]; 35 g/ha, Table 9): 0% | POAAN Ob ([5]; 35 g/ha, Table 10): 0% | POAAN Ob ([5]; 70 g/ha, Table 9): 3% | POAAN Ob ([5]; 70 g/ha, Table 10): 3% | POAAN Ob ([5]; 140 g/ha, Table 9): 3% | POAAN Ob ([5]; 140 g/ha, Table 10): 3% | BRSNN Ob ([6]; 8.75 g/ha): 50% | BRSNN Ob ([6]; 17.5 g/ha): 50% | BRSNN Ob ([6]; 35 g/ha): 50% | BRSNN Ob ([6]; 70 g/ha): 50%

O=C(O)c1c(Cl)ccc2cc(Cl)cnc12 [Quinclorac]
KCHSC Ob ([7]; 140 g/ha alone): 0%

COc1c(Cl)ccc(-c2cc(N)c(Cl)c(C(=O)O)n2)c1F [Compound A TEA, 4-amino-3-chloro-6-(4-chloro-2-fluoro-3-methoxyphenyl)pyridine-2-carboxylic acid]
ALOMY Ob ([1]; 35 g/ha, Table 14): 0% | ALOMY Ob ([1]; 35 g/ha, Table 16): 0% | ALOMY Ob ([1]; 35 g/ha, Table 18): 0% | ALOMY Ob ([1]; 35 g/ha, Table 19): 0% | ALOMY Ob ([1]; 70 g/ha, Table 14): 0% | ALOMY Ob ([1]; 70 g/ha, Table 16): 0% | ALOMY Ob ([1]; 70 g/ha, Table 18): 0% | ALOMY Ob ([1]; 70 g/ha, Table 19): 0% | ALOMY Ob ([1]; 140 g/ha, Table 14): 3% | ALOMY Ob ([1]; 140 g/ha, Table 16): 0% | ALOMY Ob ([1]; 140 g/ha, Table 18): 3% | ALOMY Ob ([1]; 140 g/ha, Table 19): 0% | SINAR Ob ([2]; 8.75 g/ha): 35% | SINAR Ob ([2]; 17.5 g/ha): 60% | SINAR Ob ([2]; 35 g/ha): 65% | SINAR Ob ([2]; 70 g/ha): 70% | LOLMU ([3]; 35 g/ha): 0% | LOLMU Ob ([3]; 35 g/ha, Table 14): 0% | LOLMU Ob ([3]; 35 g/ha, Table 17): 0% | LOLMU ([3]; 70 g/ha): 0% | LOLMU Ob ([3]; 70 g/ha, Table 14): 3% | LOLMU Ob ([3]; 70 g/ha, Table 17): 0% | LOLMU ([3]; 140 g/ha): 0% | LOLMU Ob ([3]; 140 g/ha, Table 14): 3% | LOLMU Ob ([3]; 140 g/ha, Table 17): 5% | POLPE Ob ([4]; 8.75 g/ha alone): 30% | POLPE Ob ([4]; 17.5 g/ha alone): 41% | POLPE Ob ([4]; 35 g/ha alone): 68% | POAAN Ob ([5]; 35 g/ha, Table 16): 0% | POAAN Ob ([5]; 35 g/ha, Table 17): 0% | POAAN Ob ([5]; 70 g/ha, Table 16): 0% | POAAN Ob ([5]; 70 g/ha, Table 17): 0% | POAAN Ob ([5]; 140 g/ha, Table 16): 0% | POAAN Ob ([5]; 140 g/ha, Table 17): 0% | KCHSC Ob ([7]; 8.75 g/ha): 35% | KCHSC Ob ([7]; 8.75 g/ha alone): 65% | KCHSC Ob ([7]; 17.5 g/ha): 60% | KCHSC Ob ([7]; 17.5 g/ha alone): 77% | KCHSC Ob ([7]; 35 g/ha): 65% | KCHSC Ob ([7]; 35 g/ha alone): 92% | KCHSC Ob ([7]; 70 g/ha): 70% | KCHSC Ob ([7]; 70 g/ha alone): 99%

COC(=O)c1nc(-c2ccc(Cl)c(OC)c2F)nc(N)c1Cl [Compound B Methyl, 6-amino-5-chloro-2-(4-chloro-2-fluoro-3-methoxyphenyl)pyrimidine-4-carboxylic acid methyl ester]
ALOMY Ob ([1]; 8.75 g/ha): 0% | ALOMY Ob ([1]; 8.75 g/ha, Table 20): 0% | ALOMY Ob ([1]; 8.75 g/ha, Table 22): 0% | ALOMY Ob ([1]; 17.5 g/ha): 10% | ALOMY Ob ([1]; 17.5 g/ha, Table 20): 10% | ALOMY Ob ([1]; 17.5 g/ha, Table 22): 10% | ALOMY Ob ([1]; 35 g/ha): 20% | ALOMY Ob ([1]; 35 g/ha, Table 20): 20% | ALOMY Ob ([1]; 35 g/ha, Table 22): 20% | ALOMY Ob ([1]; 70 g/ha): 40% | ALOMY Ob ([1]; 70 g/ha, Table 20): 40% | ALOMY Ob ([1]; 70 g/ha, Table 22): 40% | BRSNN Ob ([6]; 8.75 g/ha alone): 20% | BRSNN Ob ([6]; 17.5 g/ha alone): 35% | BRSNN Ob ([6]; 35 g/ha alone): 50% | BRSNN Ob ([6]; 70 g/ha alone): 55%
